Ends that are not written are not given here.
What was measured:
[1] = target: fluorescein-labeled KB-752; experiment: MST
[2] = system: Gs signaling (β2–adrenergic receptor, AC); experiment: Cell-free ELISA-based cAMP assay on NG108–15 membrane preparations; type: biochemical
[3] = system: HEK293 cells overexpressing the SNAP-β2 adrenergic receptor (Gs signaling pathway); experiment: Whole-cell Iso-induced cAMP accumulation assay; type: cell-based
[4] = system: Gi signaling (δ–opioid receptor, AC); experiment: Cell-free ELISA-based cAMP assay on NG108–15 membrane preparations; type: biochemical; details: Fsk+DADLE
[5] = target: Gαi1·GDP (UniProt P63096 2-354); experiment: MST
Sequence of Gαi1·GDP (UniProt P63096 2-354) (P63096 2-354): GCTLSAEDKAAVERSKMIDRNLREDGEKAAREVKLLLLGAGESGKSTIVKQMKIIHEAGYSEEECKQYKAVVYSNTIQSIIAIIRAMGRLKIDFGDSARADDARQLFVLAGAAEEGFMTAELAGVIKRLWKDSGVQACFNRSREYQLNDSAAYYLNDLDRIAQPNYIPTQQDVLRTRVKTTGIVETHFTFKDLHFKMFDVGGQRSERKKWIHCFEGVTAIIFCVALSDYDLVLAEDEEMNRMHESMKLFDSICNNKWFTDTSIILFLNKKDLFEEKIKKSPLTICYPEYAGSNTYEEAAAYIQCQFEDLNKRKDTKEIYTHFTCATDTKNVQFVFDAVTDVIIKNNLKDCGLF

Sequence of Gαi1·GDP (from UniProt P63096 2-354) (natural protein) (P63096 2-354): as above

Gαi1·GDP (from UniProt P63096 2-354) (natural protein)
Kd [1]: 345 nM

SRVTWYDFLMEDTKSR-OH [KB–752]
effect on Gs signaling / functional regulation of Gαs in cell-free ELISA [2]: inhibit Gs signaling
effect on Gαs in the whole cell assay [3]: no effect
effect on DADLE-mediated inhibition of the AC activity [4]: no effect

{5(6)‑carboxyfluorescein}-RWLRALRYP [GPM-1 Y5A, fluorescein-labeled]
Kd [5]: 285 ± 40 nM
